Data set [1] has as its target T1, rat calcitonin receptor (rat CTR) (Rattus norvegicus, UniProt P32214).
T1 construct: expressed in transfected cells
T1 sequence (P32214 25-516): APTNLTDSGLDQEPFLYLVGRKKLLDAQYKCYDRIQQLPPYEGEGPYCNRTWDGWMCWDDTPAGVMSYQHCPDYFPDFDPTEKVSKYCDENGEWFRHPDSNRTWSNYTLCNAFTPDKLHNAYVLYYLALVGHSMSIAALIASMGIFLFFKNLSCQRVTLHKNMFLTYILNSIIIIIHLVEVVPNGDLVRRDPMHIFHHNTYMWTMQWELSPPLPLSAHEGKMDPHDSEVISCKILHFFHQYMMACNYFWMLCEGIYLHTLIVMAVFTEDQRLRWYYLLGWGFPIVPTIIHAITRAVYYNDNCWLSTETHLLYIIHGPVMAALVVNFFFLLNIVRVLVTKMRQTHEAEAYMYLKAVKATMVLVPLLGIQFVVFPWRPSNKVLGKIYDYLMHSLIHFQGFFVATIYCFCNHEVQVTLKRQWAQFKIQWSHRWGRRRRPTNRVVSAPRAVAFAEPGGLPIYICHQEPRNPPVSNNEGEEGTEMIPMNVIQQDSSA
The data set can be described thus: cAMP production in HEK cells with stable recombinant expression of rat calcitonin receptor (rat CTR). Conditions: assay buffer with 0.1% BSA. The format is cell-based. An outline of the steps:
(§1)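 EC50 values come from 4-parameter logistic fits of HTRF cAMP signal, normalised to maximal calcitonin or amylin effect. Peptides were tested in duplicate for 30 min at RT in IBMX-containing (0.5 mM) BSA/HEPES buffer pH 7.4 on stable 1321N1 (human CTR, AMYR3) or HEK (rat CTR, AMYR3) lines.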
In general terms: Cyclic AMP is a second messenger, typically raised through Gs and lowered through Gi signalling.

In data set [2] the target is T2, human amylin receptor (calcitonin receptor co-expressed with receptor activity modifying protein, RAMP3) (hAMYR3) (Homo sapiens, UniProt O60896+P30988).
T2 construct: expressed in transfected cells
T2 sequence (P30988 25-474): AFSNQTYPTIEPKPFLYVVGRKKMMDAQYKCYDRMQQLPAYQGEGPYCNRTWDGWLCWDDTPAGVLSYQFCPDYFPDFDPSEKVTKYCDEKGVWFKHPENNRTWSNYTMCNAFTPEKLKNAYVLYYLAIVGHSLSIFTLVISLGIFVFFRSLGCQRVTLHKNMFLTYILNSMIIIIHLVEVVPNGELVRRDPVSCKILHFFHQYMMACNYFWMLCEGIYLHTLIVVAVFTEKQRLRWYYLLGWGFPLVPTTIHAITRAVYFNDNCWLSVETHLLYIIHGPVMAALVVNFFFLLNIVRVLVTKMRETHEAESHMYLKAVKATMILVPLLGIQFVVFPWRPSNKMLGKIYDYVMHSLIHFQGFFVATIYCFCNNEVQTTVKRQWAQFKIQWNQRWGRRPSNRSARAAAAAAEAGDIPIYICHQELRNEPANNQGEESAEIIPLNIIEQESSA
T2 sequence (O60896 24-148 partner): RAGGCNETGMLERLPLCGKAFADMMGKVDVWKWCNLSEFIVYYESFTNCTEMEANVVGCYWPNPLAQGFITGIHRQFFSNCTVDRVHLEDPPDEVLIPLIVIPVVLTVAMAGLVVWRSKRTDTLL
The data set can be described thus: cAMP production in 1321N1 cells with stable recombinant expression of human amylin receptor (hAMYR3). It is filed as cell-based. The settings on record: for Ratio (selectivity hAMYR vs hCTR, ratio of EC50 values at the two receptors): EC50 hCTR / EC50 hAMYR3; for EC50: cAMP, 1321N1 cells, assay buffer with 0.1% BSA, read-out: EC50 (pM) hAMYR3. Summed up:
as §1

Data set [3] is described as follows: Thioflavin T fibrillation assay. The format is physicochemical. The settings on record: for Time taken to detect increase in fluorescence intensity: ThT fibrillation assay, peptide 1 mg/mL in 25 mM sodium acetate buffer pH 4.0, 6 days at 37 °C with shaking, >144 h = no increase. Summed up: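 Peptides at 1 mg/mL in 25 mM sodium acetate pH 4.0 with ThT (from 0.25 mM stock), incubated 6 days at 37 °C with intermittent orbital shaking at 500–750 rpm. Fluorescence (ex 444/em 480 nm) read every 30 min; value is average time to a rise in baseline-corrected signal.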

In data set [4] the target is T3, human calcitonin receptor (hCTR) (Homo sapiens, UniProt P30988).
T3 construct: expressed in transfected cells
T3 sequence (P30988 25-474): T2 sequence (P30988 25-474)
The data set can be described thus: cAMP production in 1321N1 cells with stable recombinant expression of human calcitonin receptor (hCTR). It is filed as cell-based. The settings on record: cAMP, 1321N1 cells, assay buffer with 0.1% BSA; read-out: EC50 (pM) hCTR. An outline of the steps: as §1

Numbered stars: 1 amine (or outer) side, 2 acyl side, 3 side chain; on linkers, the order of the positions; unused ones are H or OH. Bridge positions count the residues as written; N and C are the ends. Square brackets hold non-standard residues; d marks the D form. Side chains are listed from the residue outwards. Peptide text beside a SMILES is read from it. * marks the point of attachment. C18 diacid = O=C(O)CCCCCCCCCCCCCCCCC(=O)*; γGlu = O=C(O)[C@H](CCC(=O)[*:2])N[*:1]; αMeF = C[C@](N)(Cc1ccccc1)C(=O)O

As to `CC[C@H](C)[C@H](NC(=O)[C@@H]1CCCN1C(=O)CNC(=O)[C@](C)(Cc1ccccc1)NC(=O)[C@H](CC(N)=O)NC(=O)[C@H](CC(N)=O)NC(=O)[C@H](CO)NC(=O)[C@H](CO)NC(=O)[C@H](Cc1c[nH]cn1)NC(=O)[C@@H](NC(=O)[C@H](CC(C)C)NC(=O)[C@H](Cc1ccccc1)NC(=O)[C@H](CC(N)=O)NC(=O)[C@H](C)NC(=O)[C@H](CC(C)C)NC(=O)[C@H](CCCNC(=N)N)NC(=O)[C@H](CCC(N)=O)NC(=O)[C@@H](NC(=O)[C@H](C)NC(=O)[C@@H]1CSSC[C@H](NC(=O)[C@@H](N)CCCCNC(=O)CC[C@H](NC(=O)CC[C@H](NC(=O)CCCCCCCCCCCCCCCCC(=O)O)C(=O)O)C(=O)O)C(=O)N[C@@H](CC(N)=O)C(=O)N[C@@H]([C@@H](C)O)C(=O)N[C@@H](C)C(=O)N[C@@H]([C@@H](C)O)C(=O)N1)[C@@H](C)O)C(C)C)C(=O)N[C@@H](CC(C)C)C(=O)N1CCC[C@H]1C(=O)N1CCC[C@H]1C(=O)N[C@H](C(=O)N[C@@H](CCCNC(=N)N)C(=O)N[C@H](C(=O)NCC(=O)N[C@@H](CO)C(=O)N[C@@H](CC(N)=O)C(=O)N[C@H](C(=O)N[C@@H](Cc1ccc(O)cc1)C(N)=O)[C@@H](C)O)C(C)C)[C@@H](C)O` [Peptide 24, K(γE-γE-C18diacid)[CNTATC]ATQRLANFLVHSSNN(αMePhe)GPILPPTRVGSNTY-amide] (H-K([γGlu-γGlu-C18 diacid])CNTATCATQRLANFLVHSSNN[αMeF]GPILPPTRVGSNTY-NH2; disulfide 2-7; N-terminus assumed), the results for the EC50 in data set [1], in data set [2] and in data set [4] were 755 pM, 127 pM and 1860 pM, respectively. Also, in data set [2], the “Ratio (selectivity hAMYR vs hCTR, ratio of EC50 values at the two receptors)” value is reported as 15. In addition, the “Time taken to detect increase in fluorescence intensity” value in data set [3] is reported as greater than 144 h.
For `CC[C@H](C)[C@H](NC(=O)[C@@H]1CCCN1C(=O)CNC(=O)[C@H](Cc1ccccc1)NC(=O)[C@H](CC(N)=O)NC(=O)[C@H](CC(N)=O)NC(=O)[C@H](CO)NC(=O)[C@H](CO)NC(=O)[C@H](Cc1c[nH]cn1)NC(=O)[C@@H](NC(=O)[C@H](CC(C)C)NC(=O)[C@H](Cc1ccccc1)NC(=O)[C@H](CC(N)=O)NC(=O)[C@H](C)NC(=O)[C@H](CC(C)C)NC(=O)[C@H](CCCNC(=N)N)NC(=O)[C@H](CCC(N)=O)NC(=O)[C@@H](NC(=O)[C@H](C)NC(=O)[C@@H]1CSSC[C@H](NC(=O)[C@H](CCCCN)NC(=O)CC[C@H](NC(=O)CCCCCCCCCCCCCCCCC(=O)O)C(=O)O)C(=O)N[C@@H](CC(N)=O)C(=O)N[C@@H]([C@@H](C)O)C(=O)N[C@@H](C)C(=O)N[C@@H]([C@@H](C)O)C(=O)N1)[C@@H](C)O)C(C)C)C(=O)N[C@@H](CC(C)C)C(=O)N1CCC[C@H]1C(=O)N1CCC[C@H]1C(=O)N[C@H](C(=O)N[C@@H](CC(N)=O)C(=O)N[C@H](C(=O)NCC(=O)N[C@@H](CO)C(=O)N[C@@H](CC(N)=O)C(=O)N[C@H](C(=O)N[C@@H](Cc1ccc(O)cc1)C(N)=O)[C@@H](C)O)C(C)C)[C@@H](C)O` [Peptide 3] ({C18 diacid-γGlu}-KCNTATCATQRLANFLVHSSNNFGPILPPTNVGSNTY-NH2; disulfide 2-7), the EC50 in data set [1] was determined as 186 pM; in data set [2], 246 pM; in data set [4], 1350 pM. In data set [2], the “Ratio (selectivity hAMYR vs hCTR, ratio of EC50 values at the two receptors)” value is recorded as 5. In addition, the fibril-forming tendency entry in data set [3] (ThT assay, 1 mg/mL, pH 4.0, 37 °C, compared to pramlintide) was “increases the fibril-forming tendency”. In addition, the “Time taken to detect increase in fluorescence intensity” value in data set [3] is reported as less than 5 h.

As a reminder, the EC50 is the concentration that produces a half-maximal response.

(Values after patent US20240067693A1, “POLYPEPTIDES AND USES THEREOF” (MEDIMMUNE LIMITED, priority 2020, published 2024).)
